One assay concerns the target T1, hAMY3 receptor (Homo sapiens, UniProt O60896+P30988).
T1 sequence (P30988 25-474): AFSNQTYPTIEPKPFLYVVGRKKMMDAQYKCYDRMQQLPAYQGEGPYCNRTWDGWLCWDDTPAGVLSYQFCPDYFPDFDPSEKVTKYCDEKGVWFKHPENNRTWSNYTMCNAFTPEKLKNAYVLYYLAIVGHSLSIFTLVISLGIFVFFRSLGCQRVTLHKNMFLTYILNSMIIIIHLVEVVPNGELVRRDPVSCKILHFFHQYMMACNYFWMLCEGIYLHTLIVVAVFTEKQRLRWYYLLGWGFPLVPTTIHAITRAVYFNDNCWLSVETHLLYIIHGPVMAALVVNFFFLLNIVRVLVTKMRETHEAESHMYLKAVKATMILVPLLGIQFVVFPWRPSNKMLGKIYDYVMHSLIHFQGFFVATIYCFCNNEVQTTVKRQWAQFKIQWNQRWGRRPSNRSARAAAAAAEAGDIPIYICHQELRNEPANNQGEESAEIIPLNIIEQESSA
T1 sequence (O60896 24-148 partner): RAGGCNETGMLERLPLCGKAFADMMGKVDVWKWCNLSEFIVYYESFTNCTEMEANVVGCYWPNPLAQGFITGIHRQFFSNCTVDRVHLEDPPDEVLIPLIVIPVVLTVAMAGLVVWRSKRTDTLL
As to the kind of experiment: cAMP assay for in vitro receptor activation, hAMY3-R. It is filed as cell-based. Particulars: cAMP assay, hAMY3 receptor; read-out: hAMY3R EC50. In a few lines: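 Accumulated cAMP was detected by time-resolved FRET one hour after reagent addition. Beforehand, hAMY3-R-overexpressing monoclonal cells (2000/well, DPBS, 0.05% casein, 0.5 mM IBMX) received graded doses of compound for 30 min at room temperature; human amylin served as positive control.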
On the technique in general: cAMP levels reflect the balance of adenylyl cyclase and phosphodiesterase activity.

The target of a further assay is hAM1 receptor (Homo sapiens, UniProt O60895+Q16602). As to the kind of experiment: cAMP assay for in vitro receptor activation, hAM1-R. The class given is cell-based. Particulars: cAMP assay, hAM1 receptor; read-out: hAM1R EC50. The gist of the method: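 Stable hAM1 cells (monoclonal) plated 8000/well; buffer DPBS, 0.05% casein, 0.5 mM IBMX; cAMP read-out.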

Drawing on patent publication US12139520B2 (priority 2020, dated 2024), this text covers EC50 for six molecules.

The structures appear in SMILES notation. Numbered stars: 1 amine (or outer) side, 2 acyl side, 3 side chain; on linkers, the order of the positions; unused ones are H or OH. Bridge positions count the residues as written; N and C are the ends. Square brackets hold non-standard residues; d marks the D form. Side chains are listed from the residue outwards. Peptide text beside a SMILES is read from it. * marks the point of attachment. C20 diacid = O=C(O)CCCCCCCCCCCCCCCCCCC(=O)*; γGlu = O=C(O)[C@H](CCC(=O)[*:2])N[*:1]; Hyp = O=C(O)[C@@H]1C[C@@H](O)CN1; AEEA = NCCOCCOCC(=O)O

Sequence of hAM1 receptor (Q16602 23-461): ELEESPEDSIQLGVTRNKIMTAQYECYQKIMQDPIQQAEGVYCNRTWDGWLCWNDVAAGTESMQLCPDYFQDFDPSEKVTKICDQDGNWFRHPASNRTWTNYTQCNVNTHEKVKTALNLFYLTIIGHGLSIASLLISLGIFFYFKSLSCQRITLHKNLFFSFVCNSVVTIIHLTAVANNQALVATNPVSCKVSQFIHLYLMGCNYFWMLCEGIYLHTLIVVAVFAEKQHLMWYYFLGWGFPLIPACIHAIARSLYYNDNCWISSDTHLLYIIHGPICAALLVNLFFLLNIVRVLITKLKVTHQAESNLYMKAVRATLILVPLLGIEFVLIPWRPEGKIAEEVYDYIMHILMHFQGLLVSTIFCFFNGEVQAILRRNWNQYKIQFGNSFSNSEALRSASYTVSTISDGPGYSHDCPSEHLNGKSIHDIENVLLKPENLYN
Sequence of hAM1 receptor (O60895 43-175 partner): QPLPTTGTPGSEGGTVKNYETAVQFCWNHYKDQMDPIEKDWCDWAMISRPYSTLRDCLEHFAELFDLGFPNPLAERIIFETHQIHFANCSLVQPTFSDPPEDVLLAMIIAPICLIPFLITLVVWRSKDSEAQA

As for `CC[C@H](C)[C@H](NC(=O)[C@H](CCC(N)=O)NC(=O)[C@H](Cc1c[nH]cn1)NC(=O)[C@H](C)NC(=O)[C@H](CC(C)C)NC(=O)[C@H](CCCNC(=N)N)NC(=O)[C@H](CCC(N)=O)NC(=O)[C@@H](NC(=O)[C@@H](NC(=O)[C@@H]1CSSC[C@H](NC(=O)[C@H](CCCCN)NC(=O)CC[C@H](NC(=O)CCCCCCCCCCCCCCCCCCC(=O)O)C(=O)O)C(=O)N[C@@H](CC(N)=O)C(=O)N[C@@H]([C@@H](C)O)C(=O)N[C@@H](C)C(=O)N[C@@H]([C@@H](C)O)C(=O)N1)[C@@H](C)O)C(C)C)C(=O)N[C@@H](C)C(=O)N[C@@H](CCC(N)=O)C(=O)N[C@@H](Cc1ccccc1)C(=O)N[C@@H](CO)C(=O)N[C@@H](CC(=O)O)C(=O)N[C@@H](CCCCN)C(=O)N[C@@H](CC(=O)O)C(=O)N[C@@H](CCCCN)C(=O)N[C@@H](CC(=O)O)C(=O)N[C@@H](CC(N)=O)C(=O)N[C@H](C(=O)N[C@@H](C)C(=O)N1CCC[C@H]1C(=O)N1CCC[C@H]1C(=O)N[C@H](C(=O)N[C@@H](CC(N)=O)C(=O)N[C@H](C(=O)NCC(=O)N[C@@H](CO)C(=O)N[C@@H](CC(N)=O)C(=O)NCC(=O)N1C[C@H](O)C[C@H]1C(N)=O)C(C)C)[C@@H](C)O)C(C)C` [compound 79] ({C20 diacid-γGlu}-KCNTATCTVQRLAHQIAQFSDKDKDNVAPPTNVGSNG[Hyp]-NH2; disulfide 2-7), the EC50 – broadly, the midpoint of the concentration-response curve – at hAMY3 receptor is 0.014 nM; at hAM1 receptor, above 5000 nM.

As for `CC[C@H](C)[C@H](NC(=O)[C@H](CCC(N)=O)NC(=O)[C@H](Cc1c[nH]cn1)NC(=O)[C@H](C)NC(=O)[C@H](CC(C)C)NC(=O)[C@H](CCCNC(=N)N)NC(=O)[C@H](C)NC(=O)[C@@H](NC(=O)[C@@H](NC(=O)[C@@H]1CSSC[C@H](NC(=O)[C@H](CCCCN)NC(=O)CC[C@H](NC(=O)CCCCCCCCCCCCCCCCCCC(=O)O)C(=O)O)C(=O)N[C@@H](CC(N)=O)C(=O)N[C@@H]([C@@H](C)O)C(=O)N[C@@H](C)C(=O)N[C@@H]([C@@H](C)O)C(=O)N1)[C@@H](C)O)C(C)C)C(=O)N[C@@H](CC(N)=O)C(=O)N[C@@H](CCC(N)=O)C(=O)N[C@@H](Cc1ccccc1)C(=O)N[C@H](C(=O)N[C@@H](CC(=O)O)C(=O)N[C@@H](CCCCN)C(=O)N[C@@H](CC(=O)O)C(=O)N[C@@H](CCCCN)C(=O)N[C@@H](CC(=O)O)C(=O)N[C@@H](CC(N)=O)C(=O)N[C@H](C(=O)N[C@@H](C)C(=O)N1CCC[C@H]1C(=O)N1CCC[C@H]1C(=O)N[C@H](C(=O)N[C@@H](CC(N)=O)C(=O)N[C@H](C(=O)NCC(=O)N[C@@H](CO)C(=O)N[C@@H](CC(N)=O)C(=O)NCC(=O)N1C[C@H](O)C[C@H]1C(N)=O)C(C)C)[C@@H](C)O)C(C)C)[C@@H](C)O` [compound 86] ({C20 diacid-γGlu}-KCNTATCTVARLAHQINQFTDKDKDNVAPPTNVGSNG[Hyp]-NH2; disulfide 2-7), the EC50 at hAMY3 receptor is 0.015 nM; on hAM1 receptor, above 5000 nM.

In the case of `CC[C@H](C)[C@H](NC(=O)[C@H](CCC(N)=O)NC(=O)[C@H](Cc1c[nH]cn1)NC(=O)[C@H](C)NC(=O)[C@H](CC(C)C)NC(=O)[C@H](CCCNC(=N)N)NC(=O)[C@H](CCC(N)=O)NC(=O)[C@@H](NC(=O)[C@@H](NC(=O)[C@@H]1CSSC[C@H](NC(=O)[C@H](CCCCN)NC(=O)CC[C@H](NC(=O)CCCCCCCCCCCCCCCCCCC(=O)O)C(=O)O)C(=O)N[C@@H](CC(N)=O)C(=O)N[C@@H]([C@@H](C)O)C(=O)N[C@@H](C)C(=O)N[C@@H]([C@@H](C)O)C(=O)N1)[C@@H](C)O)C(C)C)C(=O)N[C@@H](C)C(=O)N[C@@H](CCC(N)=O)C(=O)N[C@@H](Cc1ccccc1)C(=O)N[C@H](C(=O)N[C@@H](CC(=O)O)C(=O)N[C@@H](CCCCN)C(=O)N[C@@H](CC(N)=O)C(=O)N[C@@H](CCCCN)C(=O)N[C@@H](CC(=O)O)C(=O)N[C@@H](CC(N)=O)C(=O)N[C@H](C(=O)N[C@@H](C)C(=O)N1CCC[C@H]1C(=O)N1CCC[C@H]1C(=O)N[C@H](C(=O)N[C@@H](CC(N)=O)C(=O)N[C@H](C(=O)NCC(=O)N[C@@H](CO)C(=O)N[C@@H](CC(N)=O)C(=O)NCC(=O)N1C[C@H](O)C[C@H]1C(N)=O)C(C)C)[C@@H](C)O)C(C)C)[C@@H](C)O` [compound 87] ({C20 diacid-γGlu}-KCNTATCTVQRLAHQIAQFTDKNKDNVAPPTNVGSNG[Hyp]-NH2; disulfide 2-7), the figures for the 50% effective concentration (EC50) at hAMY3 receptor and on hAM1 receptor were 0.015 nM and above 5000 nM, respectively.

Take `CC[C@H](C)[C@H](NC(=O)[C@H](CCC(N)=O)NC(=O)[C@H](Cc1c[nH]cn1)NC(=O)[C@H](C)NC(=O)[C@H](CC(C)C)NC(=O)[C@H](CCCNC(=N)N)NC(=O)[C@H](CCC(N)=O)NC(=O)[C@@H](NC(=O)[C@@H](NC(=O)[C@@H]1CSSC[C@H](NC(=O)[C@H](CCCCN)NC(=O)CC[C@H](NC(=O)CCCCCCCCCCCCCCCCCCC(=O)O)C(=O)O)C(=O)N[C@@H](CC(N)=O)C(=O)N[C@@H]([C@@H](C)O)C(=O)N[C@@H](CO)C(=O)N[C@@H]([C@@H](C)O)C(=O)N1)[C@@H](C)O)C(C)C)C(=O)N[C@@H](C)C(=O)N[C@@H](CCC(N)=O)C(=O)N[C@@H](Cc1ccccc1)C(=O)N[C@H](C(=O)N[C@@H](CC(=O)O)C(=O)N[C@@H](CCCCN)C(=O)N[C@@H](CC(=O)O)C(=O)N[C@@H](CCCCN)C(=O)N[C@@H](CC(=O)O)C(=O)N1CCC[C@H]1C(=O)N[C@H](C(=O)N[C@@H](C)C(=O)N1CCC[C@H]1C(=O)N1CCC[C@H]1C(=O)N[C@H](C(=O)N[C@@H](CC(N)=O)C(=O)N[C@H](C(=O)NCC(=O)N[C@@H](CO)C(=O)N[C@@H](CC(N)=O)C(=O)NCC(=O)N1C[C@H](O)C[C@H]1C(N)=O)C(C)C)[C@@H](C)O)C(C)C)[C@@H](C)O` [compound 88] ({C20 diacid-γGlu}-KCNTSTCTVQRLAHQIAQFTDKDKDPVAPPTNVGSNG[Hyp]-NH2; disulfide 2-7): the half-maximal effective concentration (EC50) on hAMY3 receptor was 0.015 nM; at hAM1 receptor, above 5000 nM.

In the case of `CC[C@H](C)[C@H](NC(=O)[C@H](CCC(N)=O)NC(=O)[C@H](CCC(=O)O)NC(=O)[C@H](C)NC(=O)[C@H](CC(C)C)NC(=O)[C@H](CCCNC(=N)N)NC(=O)[C@H](CCC(N)=O)NC(=O)[C@@H](NC(=O)[C@@H](NC(=O)[C@@H]1CSSC[C@H](NC(=O)[C@@H](N)CCCCN)C(=O)N[C@@H](CC(N)=O)C(=O)N[C@@H]([C@@H](C)O)C(=O)N[C@@H](C)C(=O)N[C@@H]([C@@H](C)O)C(=O)N1)[C@@H](C)O)C(C)C)C(=O)N[C@@H](Cc1ccc(O)cc1)C(=O)N[C@@H](CCC(N)=O)C(=O)N[C@@H](Cc1ccccc1)C(=O)N[C@@H](CCCCNC(=O)COCCOCCNC(=O)COCCOCCNC(=O)CC[C@H](NC(=O)CCCCCCCCCCCCCCCCCCC(=O)O)C(=O)O)C(=O)N[C@@H](CC(=O)O)C(=O)N[C@@H](CCCCN)C(=O)N[C@@H](CC(=O)O)C(=O)N[C@@H](CCCCN)C(=O)N[C@@H](CC(=O)O)C(=O)N[C@@H](CC(N)=O)C(=O)N[C@H](C(=O)N[C@@H](C)C(=O)N1CCC[C@H]1C(=O)N1CCC[C@H]1C(=O)N[C@H](C(=O)N[C@@H](CC(N)=O)C(=O)N[C@H](C(=O)NCC(=O)N[C@@H](CO)C(=O)N[C@@H](CC(N)=O)C(=O)NCC(=O)N1C[C@H](O)C[C@H]1C(N)=O)C(C)C)[C@@H](C)O)C(C)C` [compound 89] (H-KCNTATCTVQRLAEQIYQFK([AEEA-AEEA-γGlu-C20 diacid])DKDKDNVAPPTNVGSNG[Hyp]-NH2; disulfide 2-7; N-terminus assumed), the figures for the EC50 at hAMY3 receptor and on hAM1 receptor were 0.015 nM and above 5000 nM, respectively.

With `CC[C@H](C)[C@H](NC(=O)[C@H](CCC(N)=O)NC(=O)[C@H](Cc1c[nH]cn1)NC(=O)[C@H](C)NC(=O)[C@H](CC(C)C)NC(=O)[C@H](CCCNC(=N)N)NC(=O)[C@H](CCC(N)=O)NC(=O)[C@@H](NC(=O)[C@@H](NC(=O)[C@@H]1CSSC[C@H](NC(=O)[C@H](CCCCN)NC(=O)CC[C@H](NC(=O)CCCCCCCCCCCCCCCCCCC(=O)O)C(=O)O)C(=O)N[C@@H](CC(N)=O)C(=O)N[C@@H]([C@@H](C)O)C(=O)N[C@@H](C)C(=O)N[C@@H]([C@@H](C)O)C(=O)N1)[C@@H](C)O)C(C)C)C(=O)N[C@@H](C)C(=O)N[C@@H](CCC(N)=O)C(=O)N[C@@H](Cc1ccccc1)C(=O)N[C@@H](Cc1ccc(O)cc1)C(=O)N[C@@H](CC(=O)O)C(=O)N[C@@H](CCCCN)C(=O)N[C@@H](CC(=O)O)C(=O)N[C@@H](CCCCN)C(=O)N[C@@H](CC(=O)O)C(=O)N[C@@H](CC(N)=O)C(=O)N[C@H](C(=O)N[C@@H](C)C(=O)N1CCC[C@H]1C(=O)N1CCC[C@H]1C(=O)N[C@H](C(=O)N[C@@H](CC(N)=O)C(=O)N[C@H](C(=O)NCC(=O)N[C@@H](CO)C(=O)N[C@@H](CC(N)=O)C(=O)NCC(=O)N1C[C@H](O)C[C@H]1C(N)=O)C(C)C)[C@@H](C)O)C(C)C` [compound 94] ({C20 diacid-γGlu}-KCNTATCTVQRLAHQIAQFYDKDKDNVAPPTNVGSNG[Hyp]-NH2; disulfide 2-7), the figures for the concentration giving a half-maximal response (EC50) at hAMY3 receptor and on hAM1 receptor were 0.016 nM and above 5000 nM, respectively.
